# Literature values in paper PMC7395068, “The evolution of strategies to minimise the risk of human drug-induced liver injury (DILI) in drug discovery and development” (Archives of Toxicology, 2020).
# Like-named read-outs stand apart in the source and are kept apart here. Where a SMILES comes first, the peptide text is derived from it. [ ]: non-standard residue; d: D form. d(hArg(Et2)) = CCN=C(NCC)NCCCC[C@@H](N)C(=O)O; hArg(Et2) = CCN=C(NCC)NCCCC[C@H](N)C(=O)O; dPhe(4-Cl) = N[C@H](Cc1ccc(Cl)cc1)C(=O)O; d2Nal = N[C@H](Cc1ccc2ccccc2c1)C(=O)O; d3Pal = N[C@H](Cc1cccnc1)C(=O)O
# Conditions: cited from earlier work
# [1] = binary in vivo human DILI call, ref Chen 2016
# [2] = human DILI, LTKB DILIrank category, ref Chen 2016
Compound,"DILI +VE (5-8), DILI -VE (-4) [1]",DILI severity category [2],"DILI +VE (5-8), DILI -VE (-4) (in vivo)",DILI severity category (in vivo)
CC(C)(Oc1ccc(C(=O)c2ccc(Cl)cc2)cc1)C(=O)O [fenofibric acid],-VE,Ambiguous DILI-concern,–,–
CC(C)C(=O)Oc1ccc(CO)cc1[C@H](CCN(C(C)C)C(C)C)c1ccccc1 [fesoterodine],-VE,vNo-DILI-Concern,–,–
COc1cccc2c1[C@@H]1CN(CCCCn3c(=O)[nH]c4c(sc5ncc(-c6ccccc6)nc54)c3=O)C[C@@H]1CO2 [fiduxosin],+VE,vMost-DILI-Concern,–,–
C[C@]12CCC(=O)C=C1CC[C@H]1[C@@H]3CC[C@](O)(C(=O)CO)[C@@]3(C)C[C@H](O)[C@@]12F [fludrocortisone],-VE,vNo-DILI-Concern,–,–
O=C1OC2(c3ccc(O)cc3Oc3cc(O)ccc32)c2ccccc21 [fluorescein],-VE,vNo-DILI-Concern,–,–
OCCN1CCN(CCCN2c3ccccc3Sc3ccc(C(F)(F)F)cc32)CC1 [fluphenazine],-VE,Ambiguous DILI-concern,–,–
CCN(CC)CCN1C(=O)CN=C(c2ccccc2F)c2cc(Cl)ccc21 [flurazepam],+VE,vLess-DILI-Concern,–,–
CO[C@H]1O[C@H](COS(=O)(=O)O)[C@@H](O[C@@H]2O[C@@H](C(=O)O)[C@@H](O[C@H]3O[C@H](COS(=O)(=O)O)[C@@H](O[C@@H]4O[C@H](C(=O)O)[C@@H](O[C@H]5O[C@H](COS(=O)(=O)O)[C@@H](O)[C@H](O)[C@H]5NS(=O)(=O)O)[C@H](O)[C@H]4O)[C@H](OS(=O)(=O)O)[C@H]3NS(=O)(=O)O)[C@H](O)[C@H]2OS(=O)(=O)O)[C@H](O)[C@H]1NS(=O)(=O)O [fondaparinux sodium],+VE,vLess-DILI-Concern,–,–
CC(C)CN(C[C@@H](OP(=O)(O)O)[C@H](Cc1ccccc1)NC(=O)O[C@H]1CCOC1)S(=O)(=O)c1ccc(N)cc1 [fosamprenavir],-VE,Ambiguous DILI-concern,–,–
C[C@@H](O[C@H]1OCCN(Cc2nc(O)n(P(=O)(O)O)n2)[C@H]1c1ccc(F)cc1)c1cc(C(F)(F)F)cc(C(F)(F)F)c1 [fosaprepitant],-VE,Ambiguous DILI-concern,–,–
C[C@@H]1O[C@@H]1P(=O)(O)O [fosfomycin],+VE,vLess-DILI-Concern,–,–
CCC(=O)O[C@@H](O[P@](=O)(CCCCc1ccccc1)CC(=O)N1C[C@H](C2CCCCC2)C[C@H]1C(=O)O)C(C)C [fosinopril],+VE,vLess-DILI-Concern,–,–
O=C1NC(c2ccccc2)(c2ccccc2)C(=O)N1COP(=O)(O)O [fosphenytoin],+VE,vMost-DILI-Concern,–,–
CC(C)c1cccc(C(C)C)c1OCOP(=O)(O)O [fospropofol],+VE,vLess-DILI-Concern,–,–
CN[C@@H]1CCc2[nH]c3ccc(C(N)=O)cc3c2C1 [frovatriptan],-VE,vNo-DILI-Concern,–,–
C[C@]12CC[C@@H]3c4ccc(O)cc4C[C@@H](CCCCCCCCC[S+]([O-])CCCC(F)(F)C(F)(F)F)[C@H]3[C@@H]1CC[C@@H]2O (some centres unmarked) [fulvestrant],-VE,Ambiguous DILI-concern,–,–
CNC[C@H](O)[C@@H](O)[C@H](O)[C@H](O)CO.CNC[C@H](O)[C@@H](O)[C@H](O)[C@H](O)CO.O=C([O-])CN(CCN(CC(=O)[O-])CC(=O)O)CCN(CC(=O)O)C(COCc1ccccc1)C(=O)[O-].[Gd+3] (centres unmarked) [gadobenate dimeglumine],–,–,-VE,vNo-DILI-Concern
CNC(=O)CN(CCN(CCN(CC(=O)[O-])CC(=O)NC)CC(=O)[O-])CC(=O)[O-].[Gd+3] [gadodiamide],–,–,-VE,Ambiguous DILI-concern
O=C([O-])CN(CCN(CC(=O)[O-])CC(COP(=O)([O-])OC1CCC(c2ccccc2)(c2ccccc2)CC1)N(CC(=O)[O-])CC(=O)[O-])CC(=O)[O-].[Gd+3].[Na+].[Na+].[Na+] (centres unmarked) [gadofosveset trisodium],–,–,-VE,vNo-DILI-Concern
CNC[C@H](O)[C@@H](O)[C@H](O)[C@H](O)CO.CNC[C@H](O)[C@@H](O)[C@H](O)[C@H](O)CO.O=C([O-])CN(CCN(CC(=O)[O-])CC(=O)O)CCN(CC(=O)[O-])CC(=O)O.[Gd+3] [gadopentetate dimeglumine],–,–,-VE,vNo-DILI-Concern
CC(O)CN1CCN(CC(=O)[O-])CCN(CC(=O)[O-])CCN(CC(=O)[O-])CC1.[Gd+3] (centres unmarked) [gadoteridol],–,–,-VE,vNo-DILI-Concern
COCCNC(=O)CN(CCN(CCN(CC(=O)[O-])CC(=O)NCCOC)CC(=O)[O-])CC(=O)[O-].[Gd+3] [gadoversetamide],–,–,-VE,vNo-DILI-Concern

Compound,"DILI +VE (5-8), DILI -VE (-4) [1]",DILI severity category [2],"DILI +VE (5-8), DILI -VE (-4) (in vivo)",DILI severity category (in vivo)
O=[N+]([O-])[O-].O=[N+]([O-])[O-].O=[N+]([O-])[O-].[Ga+3] [gallium nitrate],-VE,Ambiguous DILI-concern,–,–
O=C(O)CCCO [gamma hydroxybutyric acid],-VE,vNo-DILI-Concern,–,–
CCN=C(NCC)NCCCC[C@H](NC(=O)[C@H](CC(C)C)NC(=O)[C@@H](CCCCNC(=NCC)NCC)NC(=O)[C@H](Cc1ccc(O)cc1)NC(=O)[C@H](CO)NC(=O)[C@@H](Cc1cccnc1)NC(=O)[C@@H](Cc1ccc(Cl)cc1)NC(=O)[C@@H](Cc1ccc2ccccc2c1)NC(C)=O)C(=O)N1CCC[C@H]1C(=O)N[C@H](C)C(N)=O [ganirelix acetate] (Ac-[d2Nal][dPhe(4-Cl)][d3Pal]SY[d(hArg(Et2))]L[hArg(Et2)]P[dA]-NH2),–,–,-VE,vNo-DILI-Concern
Nc1ccn([C@@H]2O[C@H](CO)[C@@H](O)C2(F)F)c(=O)n1 [gemcitabine],+VE,vMost-DILI-Concern,–,–
CC(C)C[C@H](NC(=O)[C@@H](COC(C)(C)C)NC(=O)[C@H](Cc1ccc(O)cc1)NC(=O)[C@H](CO)NC(=O)[C@H](Cc1c[nH]c2ccccc12)NC(=O)[C@H](Cc1cnc[nH]1)NC(=O)[C@@H]1CCC(=O)N1)C(=O)N[C@@H](CCCNC(=N)N)C(=O)N1CCC[C@H]1C(=O)NNC(N)=O [goserelin],-VE,Ambiguous DILI-concern,–,–
CN1C2CCCC1CC(NC(=O)c1nn(C)c3ccccc13)C2 (centres unmarked) [granisetron],-VE,Ambiguous DILI-concern,–,–
N=C(N)NC(=O)Cc1c(Cl)cccc1Cl [guanfacine],-VE,Ambiguous DILI-concern,–,–
N=C(N)N [guanidine],–,–,-VE,Ambiguous DILI-concern
CCCCCCCCCC(=O)OC1(c2ccc(Cl)cc2)CCN(CCCC(=O)c2ccc(F)cc2)CC1 [haloperidol decanoate],-VE,Ambiguous DILI-concern,–,–
NCCc1cnc[nH]1.O=P(O)(O)O.O=P(O)(O)O [histamine diphosphate],–,–,-VE,vNo-DILI-Concern
CCNC(=O)[C@@H]1CCCN1C(=O)[C@H](CCCNC(=N)N)NC(=O)[C@H](CC(C)C)NC(=O)[C@@H](Cc1cn(Cc2ccccc2)cn1)NC(=O)[C@H](Cc1ccc(O)cc1)NC(=O)[C@H](CO)NC(=O)[C@H](Cc1c[nH]c2ccccc12)NC(=O)[C@H](Cc1cnc[nH]1)NC(=O)[C@@H]1CCC(=O)N1 [histrelin acetate],-VE,Ambiguous DILI-concern,–,–
C/C1=C2/[N-][C@H]([C@H](CC(N)=O)[C@@]2(C)CCC(=O)NC[C@@H](C)OP(=O)([O-])O[C@H]2[C@@H](O)[C@@H](n3cnc4cc(C)c(C)cc43)O[C@@H]2CO)[C@]2(C)N=C(/C(C)=C3N=C(/C=C4N=C1[C@@H](CCC(N)=O)C\4(C)C)[C@@H](CCC(N)=O)[C@]\3(C)CC(N)=O)[C@@H](CCC(N)=O)[C@]2(C)CC(N)=O.[Co+3].[OH-] [hydroxocobalamin],-VE,Ambiguous DILI-concern,–,–
CCN(CCO)CCCC(C)Nc1ccnc2cc(Cl)ccc12 (centres unmarked) [hydroxychloroquine],+VE,vLess-DILI-Concern,–,–
CCCCCC(=O)O[C@]1(C(C)=O)CC[C@H]2[C@@H]3CCC4=CC(=O)CC[C@]4(C)[C@H]3CC[C@@]21C [hydroxyprogesterone caproate],-VE,Ambiguous DILI-concern,–,–
CCCCCN(C)CCC(O)(P(=O)(O)O)P(=O)(O)O [ibandronate],-VE,vNo-DILI-Concern,–,–
CCCCCCCN(CC)CCCC(O)c1ccc(NS(C)(=O)=O)cc1 (centres unmarked) [ibutilide],–,–,-VE,vNo-DILI-Concern
COc1cc(C(C)=O)ccc1OCCCN1CCC(c2noc3cc(F)ccc23)CC1 [iloperidone],-VE,Ambiguous DILI-concern,–,–
CC1Cc2ccccc2N1NC(=O)c1ccc(Cl)c(S(N)(=O)=O)c1 (centres unmarked) [indapamide],-VE,Ambiguous DILI-concern,–,–
CC1(C)C(/C=C/C=C/C=C/C=C2\N(CCCCS(=O)(=O)O)c3ccc4ccccc4c3C2(C)C)=[N+](CCCCS(=O)(=O)[O-])c2ccc3ccccc3c21 [indocyanine green],-VE,vNo-DILI-Concern,–,–
O=C(CCCCC(=O)Nc1c(I)cc(I)c(C(=O)O)c1I)Nc1c(I)cc(I)c(C(=O)O)c1I [iodipamide meglumine],-VE,vNo-DILI-Concern,–,–
CNC(=O)c1c(I)c(NC(C)=O)c(I)c(C(=O)O)c1I [iothalamate sodium],-VE,vNo-DILI-Concern,–,–
